Assay results from patent US20240217966A1, “PHARMACEUTICAL COMPOSITION CONTAINING GLP-1 RECEPTOR AGONIST HAVING FUSED RING” (Shionogi & Co., Ltd., priority 2021, published 2024).

Target: T1, Human GLP-1 receptor (Homo sapiens, UniProt P43220)
T1 construct: expressed in transfected cells
Experiment: Measurement of GLP-1 receptor agonist activity (cAMP assay)
Format: cell-based
Conditions: cAMP increase in GLP-1 R/CHO-K1 cells, 2 nM human GLP-1 (7-36) = 100%, DMSO only = 0%; for Emax: CHO-K1, maximum effect, read-out: Emax
Method in brief: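 hGLP-1R/CHO-K1 cells in HBSS with 0.1% BSA, 20 mM HEPES, 0.1 mM IBMX and 0.2 mM RO20-1724 exposed to compound plus forskolin (400 μM stock) for 1 h at 37 °C. Intracellular cAMP read by HTRF (cAMP-d2/anti-cAMP cryptate, 1 h at room temperature).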

T1 sequence (P43220 24-463): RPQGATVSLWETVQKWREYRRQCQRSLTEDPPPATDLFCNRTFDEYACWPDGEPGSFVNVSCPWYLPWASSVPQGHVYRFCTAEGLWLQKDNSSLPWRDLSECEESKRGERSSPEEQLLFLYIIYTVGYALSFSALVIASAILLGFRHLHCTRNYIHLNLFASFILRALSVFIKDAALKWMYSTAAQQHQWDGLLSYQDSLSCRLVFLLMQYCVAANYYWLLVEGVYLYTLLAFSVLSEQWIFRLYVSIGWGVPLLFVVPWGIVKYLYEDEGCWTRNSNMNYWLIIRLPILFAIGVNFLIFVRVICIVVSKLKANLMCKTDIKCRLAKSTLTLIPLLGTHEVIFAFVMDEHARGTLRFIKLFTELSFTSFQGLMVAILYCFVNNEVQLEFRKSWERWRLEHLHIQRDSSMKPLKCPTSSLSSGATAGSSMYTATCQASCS

SMILES	Emax	EC50
O=C(O)c1ccc2nc(CN3CCc4cc(C(F)(F)F)c(OCc5ccc(Cl)cc5)nc4C3)n(C[C@@H]3CCO3)c2c1 [Compound I-264]	121%	2360 pM
Cc1ccc(COc2nc3c(cc2C(F)(F)F)CCN(Cc2nc4ccc(C(=O)O)cc4n2C[C@@H]2CCO2)C3)cc1 [Compound I-265]	100%	3180 pM
O=C(O)c1ccc2nc(CN3CCc4cc(C(F)(F)F)c(OCc5ccc(C6CC6)cc5)nc4C3)n(C[C@@H]3CCO3)c2c1 [Compound I-266]	111%	4040 pM
COc1cc(Cl)ccc1COc1nc2c(cc1C(F)(F)F)CCN(Cc1nc3ccc(C(=O)O)cc3n1C[C@@H]1CCO1)C2 [Compound I-267]	112%	861 pM
O=C(O)c1ccc2nc(CN3CCc4cc(C(F)(F)F)c(OCc5ccc(F)cc5F)nc4C3)n(C[C@@H]3CCO3)c2c1 [Compound I-268]	108%	1970 pM
O=C(O)c1ccc2nc(CN3CCc4cc(C(F)(F)F)c(OCc5ccc(Cl)cc5Cl)nc4C3)n(C[C@@H]3CCO3)c2c1 [Compound I-269]	109%	1160 pM
O=C(O)c1ccc2nc(CN3CCc4cc(C(F)(F)F)c(OCc5ccc(OC(F)F)cc5F)nc4C3)n(C[C@@H]3CCO3)c2c1 [Compound I-270]	116%	690 pM
N#Cc1ccc(COc2nc3c(cc2C(F)(F)F)CCN(Cc2nc4ccc(C(=O)O)cc4n2C[C@@H]2CCO2)C3)c(F)c1 [Compound I-271]	118%	1660 pM
O=C(O)c1ccc2nc(CN3CCc4cc(C(F)(F)F)c(OCc5ccc(F)cc5)nc4C3)n(C[C@@H]3CCO3)c2c1 [Compound I-272]	107%	3940 pM
C[C@H]1c2nc(OCc3ccc(Cl)cc3F)c(C(F)(F)F)cc2CCN1Cc1nc2c(F)cc(C(=O)O)cc2n1C[C@@H]1CCO1 [Compound I-273]	121%	30.1 pM
COc1cc(C(=O)O)cc2c1nc(CN1CCc3cc(C(F)(F)F)c(OCc4ccc(Cl)cc4F)nc3[C@@H]1C)n2C[C@@H]1CCO1 [Compound I-274]	120%	13.4 pM
C[C@H]1c2nc(OCc3ccc(Cl)cc3F)c(C(F)(F)F)cc2CCN1Cc1nc2ccc(C(=O)O)nc2n1C[C@@H]1CCO1 [Compound I-275]	107%	246 pM
C[C@H]1c2nc(OCc3ccc(Cl)cc3F)c(Cl)cc2CCN1Cc1nc2ccc(C(=O)O)cc2n1C[C@@H]1CCO1 [Compound I-276]	114%	52.1 pM
O=C(O)c1ccc2nc(CN3CCc4cc(C(F)(F)F)c(OCc5ccccc5Cl)nc4C3)n(C[C@@H]3CCO3)c2c1 [Compound I-277]	96.3%	3200 pM
O=C(O)c1ccc2nc(CN3CCc4cc(C(F)(F)F)c(OCc5cc(F)c(Cl)cc5F)nc4C3)n(C[C@@H]3CCO3)c2c1 [Compound I-278]	109%	806 pM
O=C(O)c1ccc2nc(CN3CCc4cc(C(F)(F)F)c(OCc5c(F)cc(Cl)cc5F)nc4C3)n(C[C@@H]3CCO3)c2c1 [Compound I-279]	110%	
O=C(O)c1ccc2nc(CN3CCc4cc(C(F)(F)F)c(OCc5c(F)cc(F)cc5F)nc4C3)n(C[C@@H]3CCO3)c2c1 [Compound I-280]	105%	790 pM
COc1cc(C(=O)O)cc2c1nc(CN1CCc3cc(C(F)(F)F)c(OCc4ccccc4Cl)nc3[C@@H]1C)n2C[C@@H]1CCO1 [Compound I-281]	120%	7.39 pM
COc1cc(C(=O)O)cc2c1nc(CN1CCc3cc(C(F)(F)F)c(OCc4ccc(F)cc4F)nc3[C@@H]1C)n2C[C@@H]1CCO1 [Compound I-282]	114%	9.18 pM
COc1cc(C(=O)O)cc2c1nc(CN1CCc3cc(C(F)(F)F)c(OCc4ccc(OC(F)F)cc4F)nc3[C@@H]1C)n2C[C@@H]1CCO1 [Compound I-283]	118%	28.3 pM
COc1cc(C(=O)O)cc2c1nc(CN1CCc3cc(C(F)(F)F)c(OCc4ccc(F)cc4)nc3[C@@H]1C)n2C[C@@H]1CCO1 [Compound I-284]	119%	16 pM
COc1cc(C(=O)O)cc2c1nc(CN1CCc3cc(C(F)(F)F)c(OCc4c(F)cc(F)cc4F)nc3[C@@H]1C)n2C[C@@H]1CCO1 [Compound I-285]	130%	8.62 pM
COc1ccc(COc2nc3c(cc2C(F)(F)F)CCN(Cc2nc4ccc(C(=O)O)nc4n2C[C@@H]2CCO2)[C@H]3C)cc1 [Compound I-286]	115%	444 pM
C[C@H]1c2nc(OCc3ccccc3Cl)c(C(F)(F)F)cc2CCN1Cc1nc2ccc(C(=O)O)nc2n1C[C@@H]1CCO1 [Compound I-287]	116%	103 pM
C[C@H]1c2nc(OCc3ccc(F)cc3F)c(C(F)(F)F)cc2CCN1Cc1nc2ccc(C(=O)O)nc2n1C[C@@H]1CCO1 [Compound I-288]	115%	171 pM
